Data on 75 molecules can be found in ChEMBL document CHEMBL1150338, “Prediction and identification of drug interactions with the human ATP-binding cassette transporter multidrug-resistance associated protein 2 (MRP2; ABCC2)” (J Med Chem, 2008).

The target of the data set is MRP2 (ABCC2) (Homo sapiens, UniProt Q92887). Nature of the data set: in vitro.
Where [1] appears, read: probe estradiol-17-beta-glucuronide.

SMILES strings stand for the structures. Counter-ions that a name gives are not always drawn.
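Also: Inside-out membrane vesicles from Sf9 insect cells expressing human MRP2, measuring uptake of the estradiol glucuronide substrate, expressed as percent of untreated control.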

Sequence of MRP2 (ABCC2) (Q92887 whole entry): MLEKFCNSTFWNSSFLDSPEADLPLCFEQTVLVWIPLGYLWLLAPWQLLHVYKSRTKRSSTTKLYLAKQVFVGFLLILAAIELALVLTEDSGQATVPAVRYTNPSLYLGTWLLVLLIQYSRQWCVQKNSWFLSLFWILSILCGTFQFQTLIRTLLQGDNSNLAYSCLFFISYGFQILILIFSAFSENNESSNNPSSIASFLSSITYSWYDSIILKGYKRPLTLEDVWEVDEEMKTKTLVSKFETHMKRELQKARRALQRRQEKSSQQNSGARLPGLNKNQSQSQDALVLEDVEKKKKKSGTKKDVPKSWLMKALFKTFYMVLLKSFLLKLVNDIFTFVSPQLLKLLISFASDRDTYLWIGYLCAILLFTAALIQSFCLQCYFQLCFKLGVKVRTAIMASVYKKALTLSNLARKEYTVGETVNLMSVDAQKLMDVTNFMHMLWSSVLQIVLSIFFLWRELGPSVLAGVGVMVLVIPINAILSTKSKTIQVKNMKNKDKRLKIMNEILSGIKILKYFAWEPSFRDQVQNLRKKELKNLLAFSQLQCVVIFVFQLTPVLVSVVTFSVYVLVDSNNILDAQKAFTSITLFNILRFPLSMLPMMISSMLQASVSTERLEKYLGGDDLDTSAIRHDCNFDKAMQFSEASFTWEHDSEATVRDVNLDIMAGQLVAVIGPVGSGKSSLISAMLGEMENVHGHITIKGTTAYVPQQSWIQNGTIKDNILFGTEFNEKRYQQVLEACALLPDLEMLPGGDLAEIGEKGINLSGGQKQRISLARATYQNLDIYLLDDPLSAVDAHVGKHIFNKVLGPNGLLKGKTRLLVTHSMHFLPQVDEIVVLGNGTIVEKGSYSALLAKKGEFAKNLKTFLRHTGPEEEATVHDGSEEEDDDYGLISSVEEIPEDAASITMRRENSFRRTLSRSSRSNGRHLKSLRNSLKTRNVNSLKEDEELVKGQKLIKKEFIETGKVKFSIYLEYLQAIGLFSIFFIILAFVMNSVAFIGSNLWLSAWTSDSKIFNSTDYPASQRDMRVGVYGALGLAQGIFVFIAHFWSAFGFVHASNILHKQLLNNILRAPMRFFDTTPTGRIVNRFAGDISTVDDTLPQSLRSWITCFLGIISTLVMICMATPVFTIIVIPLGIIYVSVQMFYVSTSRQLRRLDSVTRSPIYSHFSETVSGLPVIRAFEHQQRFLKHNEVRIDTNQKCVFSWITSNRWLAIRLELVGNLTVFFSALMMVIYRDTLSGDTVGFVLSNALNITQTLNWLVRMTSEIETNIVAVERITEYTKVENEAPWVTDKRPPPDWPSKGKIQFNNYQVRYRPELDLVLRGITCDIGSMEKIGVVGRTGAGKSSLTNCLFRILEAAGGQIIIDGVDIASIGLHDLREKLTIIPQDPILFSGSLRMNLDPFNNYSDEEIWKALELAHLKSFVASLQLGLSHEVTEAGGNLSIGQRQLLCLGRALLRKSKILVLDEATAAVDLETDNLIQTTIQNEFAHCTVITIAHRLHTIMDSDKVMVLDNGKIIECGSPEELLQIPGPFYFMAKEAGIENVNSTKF
Description: Effect on human MRP2-mediated estradiol-17-beta-glucuronide transport in Sf9 cells inverted membrane vesicles relative to control

In the case of `CC/C(=C(\c1ccccc1)c1ccc(OCCN(C)C)cc1)c1ccccc1` [TAMOXIFEN], the activity under setting [1] was determined as 8%.
Regarding `C[C@]12CC[C@H](OS(=O)(=O)O)CC1=CC[C@@H]1[C@@H]2CC[C@]2(C)C(=O)CC[C@@H]12` [PRASTERONE SULFURIC ACID], the activity under setting [1] amounted to 395%.
As for `C[C@]12CC[C@H]3[C@@H](CCC4=CC(=O)CC[C@@H]43)[C@@H]1CC[C@@H]2O` [NANDROLONE], the activity under setting [1] is 106%.
Turning to `CC(NCCC(c1ccccc1)c1ccccc1)c1ccccc1` (stereo not given) [FENDILINE], the activity under setting [1] is 5%.
In the case of `CC[C@H]1OC(=O)[C@H](C)[C@@H](O[C@H]2C[C@@](C)(OC)[C@@H](O)[C@H](C)O2)[C@H](C)[C@@H](O[C@@H]2O[C@H](C)C[C@H](N(C)C)[C@H]2O)[C@](C)(O)C[C@@H](C)C(=O)[C@H](C)[C@@H](O)[C@]1(C)O` [ERYTHROMYCIN], the activity under setting [1] amounted to 89%.
For `CNCC[C@@H](Oc1ccccc1C)c1ccccc1` [ATOMOXETINE], under setting [1], the activity was found to be 109%.
Same read-out and setting: the same measure for `CCC1=C(C)CN(C(=O)NCCc2ccc(S(=O)(=O)NC(=O)N[C@H]3CC[C@H](C)CC3)cc2)C1=O` [GLIMEPIRIDE]: 142%.
Turning to `O=C1c2c(O)ccc(O)c2C(=O)c2c(NCCNCCO)ccc(NCCNCCO)c21` [MITOXANTRONE], under setting [1], the activity worked out at 175%.
`CC(=O)Oc1ccc2c(c1)Oc1cc(OC(C)=O)ccc1C21OC(=O)c2cc(C(=O)O)ccc21`: under setting [1], the activity was 7%.
For the molecule `C[C@]12C=CC(=O)C=C1CC[C@@H]1[C@@H]2[C@@H](O)C[C@@]2(C)[C@H]1CC[C@]2(O)C(=O)CO` [PREDNISOLONE], under setting [1], the activity turned out to be 110%.
For the molecule `O=C(O)Cc1ccccc1Nc1c(Cl)cccc1Cl` [DICLOFENAC], the activity under setting [1] turned out to be 198%.
For the molecule `O=C1C(CC[S+]([O-])c2ccccc2)C(=O)N(c2ccccc2)N1c1ccccc1` (stereo not given) [SULFINPYRAZONE], under setting [1], the activity is 150%.
Still for that read-out and setting: the result for `COc1ccc2c(c[n+](C)c3c4cc5c(cc4ccc23)OCO5)c1OC` [CHELERYTHRINE CHLORIDE] reads 43%.
In the case of `Nc1ncnc2c1ncn2CCOCP(=O)(O)O` [ADEFOVIR], the activity under setting [1] came out at 96%.
As to `CCN(CC)CCCC(C)Nc1ccnc2cc(Cl)ccc12` (stereo not given) [CHLOROQUINE], the activity (sf9) stood at 102%.
With `CCOC(=O)C1=C(C)NC(C)=C(C(=O)OC)C1c1cccc([N+](=O)[O-])c1` (stereo not given) [NITRENDIPINE], under setting [1], the activity came to 224%.
Take `Cc1cc(=O)n(-c2ccccc2)n1C` [ANTIPYRINE]: the activity under setting [1] is 84%.
For the molecule `COc1cc2nc(N3CCN(C(=O)C4CCCO4)CC3)nc(N)c2cc1OC` (stereo not given) [TERAZOSIN], the activity (sf9) stood at 94%.
With `O=C(O)[C@H]1O[C@@H](Oc2cc3oc(-c4ccccc4)cc(=O)c3c(O)c2O)[C@H](O)[C@@H](O)[C@@H]1O` [BAICALIN], under setting [1], the activity came out at 34%.
Turning to `O=c1c(-c2ccc(O)cc2)coc2cc(O)cc(O)c12` [GENISTEIN], the activity under setting [1] came out at 101%.
Same read-out and setting: the result for `CCOc1ccc(-c2nc3cc(-c4nc5cc(N6CCN(C)CC6)ccc5[nH]4)ccc3[nH]2)cc1` reads 70%; that for `CNC(=C[N+](=O)[O-])NCCSCc1csc(CN(C)C)n1` [NIZATIDINE], 110%.
Consider `O=c1cc(-c2ccccc2)oc2cc(O)cc(O)c12` [CHRYSIN], for which, under setting [1], the activity worked out at 110%.
In the case of `CC(=O)[C@H]1CC[C@H]2[C@@H]3CCC4=CC(=O)CC[C@]4(C)[C@H]3CC[C@]12C` [PROGESTERONE], the activity under setting [1] amounted to 123%.
For `COc1ccc(CCN(C)CCCC(C#N)(c2ccc(OC)c(OC)c2)C(C)C)cc1OC` (stereo not given), under setting [1], the activity came to 56%.
In the case of `C#CC1(O)CC[C@H]2[C@@H]3CCc4cc(O)ccc4[C@H]3CC[C@@]21C` (single isomer, unassigned) [ETHINYL ESTRADIOL], the activity under setting [1] was 53%.
Consider `Nc1ccc(C(=O)NCC(=O)O)cc1` [AMINOHIPPURIC ACID], for which the activity under setting [1] came to 46%.
Turning to `O=C1CN(/N=C/c2ccc([N+](=O)[O-])o2)C(=O)N1` [NITROFURANTOIN], where the note is “sf9”, the activity is 94%.
On to `CN/C(=N/CCSCc1nc[nH]c1C)NC#N` [CIMETIDINE], for which the activity (sf9) turned out to be 91%.
As for `C=C[C@H]1C[N@@]2CC[C@H]1C[C@H]2[C@H](O)c1ccnc2ccc(OC)cc12` [QUININE], the activity under setting [1] amounted to 75%.
Still for that read-out and setting: the result for `COc1ccc2[nH]c([S+]([O-])Cc3ncc(C)c(OC)c3C)nc2c1` (stereo not given) [OMEPRAZOLE] reads 101%.
Consider `COc1ccc2c3c([nH]c2c1)[C@H](CC(C)C)N1C(=O)[C@H](CCC(=O)OC(C)(C)C)NC(=O)[C@@H]1C3`, for which the activity (sf9) is 73%.
As to `CCOc1ccc(NC(C)=O)cc1` [PHENACETIN], the activity under setting [1] is 83%.
Still for that read-out and setting: the result for `CCC(C)(C)C(=O)O[C@H]1C[C@@H](C)C=C2C=C[C@H](C)[C@H](CC[C@@H]3C[C@@H](O)CC(=O)O3)[C@H]21` [SIMVASTATIN] reads 61%; that for `COC(=O)C1=C(C)NC(C)=C(C(=O)OC(C)C)C1c1cccc2nonc12` (stereo not given) [ISRADIPINE], 46%.
For `N=C(N)NC(=O)c1nc(Cl)c(N)nc1N` [AMILORIDE], the activity under setting [1] turned out to be 82%.
Consider `Oc1ccc(/C=C/c2cc(O)cc(O)c2)cc1` [RESVERATROL], for which, under setting [1], the activity stood at 75%.
The same measure, in the same setting: the same measure for `C=C(C)[C@H]1Cc2c(ccc3c2O[C@@H]2COc4cc(OC)c(OC)cc4[C@@H]2C3=O)O1` [ROTENONE]: 92%; for `CC(C)NCC(O)COc1cccc2ccccc12` (stereo not given) [PROPRANOLOL]: 69%.
Consider `Cc1ccc(NC(=O)c2ccc(CN3CCN(C)CC3)cc2)cc1Nc1nccc(-c2cccnc2)n1` [IMATINIB MESYLATE], for which the activity under setting [1] was 74%.
On the same count and under the same terms, the result for `O[C@](CCN1CCCC1)(c1ccccc1)C1CCCCC1` [PROCYCLIDINE] reads 62%; that for `CC1(C)S[C@@H]2[C@H](NC(=O)Cc3ccccc3)C(=O)N2[C@H]1C(=O)O` [PENICILLIN G], 76%.
For `CN(C)[C@@H]1C(O)=C(C(N)=O)C(=O)[C@@]2(O)C(O)=C3C(=O)c4c(O)cccc4[C@@](C)(O)[C@H]3C[C@@H]12` [TETRACYCLINE], the activity (sf9) stood at 110%.
Consider `COc1ccc([C@@H]2Sc3ccccc3N(CCN(C)C)C(=O)[C@@H]2OC(C)=O)cc1` [DILTIAZEM], for which the activity under setting [1] came out at 40%.
On to `COc1cc2c(cc1OC)CN(CCc1ccc(NC(=O)c3cccc4c(=O)c5cccc(OC)c5[nH]c34)cc1)CC2`, for which the activity under setting [1] was determined as 39%.
Take `COc1cc(Cc2cnc(N)nc2N)cc(OC)c1OC` [TRIMETHOPRIM]: the activity (sf9) came to 107%.
As for `CNC(=O)c1cccnc1` [NICOTINYL METHYLAMIDE], the activity under setting [1] came to 101%.
Take `O=C1Nc2ccc(Cl)cc2C(c2ccccc2)=NC1O` (stereo not given) [OXAZEPAM]: the activity under setting [1] is 103%.
On the same count and under the same terms, the same measure for `Cc1ccc(-c2cc(C(F)(F)F)nn2-c2ccc(S(N)(=O)=O)cc2)cc1` [CELECOXIB]: 46%; for `C=C[C@H]1C[N@@]2CC[C@H]1C[C@@H]2[C@@H](O)c1ccnc2ccc(OC)cc12` [QUINIDINE]: 64%.
`CC(C)(C(=O)O)c1ccc(C(O)CCCN2CCC(C(O)(c3ccccc3)c3ccccc3)CC2)cc1` (stereo not given) [FEXOFENADINE]: the activity under setting [1] came to 97%.
In the case of `C[n+]1cc2c3c(ccc2c2ccc4cc5c(cc4c21)OCO5)OCO3` [SANGUINARIUM CHLORIDE], the activity under setting [1] was determined as 44%.
Turning to `NC(=O)N1c2ccccc2C=Cc2ccccc21` [CARBAMAZEPINE], the activity under setting [1] worked out at 86%.
With `CC(C(=O)O)c1cccc(C(=O)c2ccccc2)c1` (stereo not given) [KETOPROFEN], under setting [1], the activity was 120%.
As for `O=C1c2c(O)cc(O)cc2O[C@H](c2ccc(O)c(O)c2)[C@H]1O` [(+)-TAXIFOLIN], under setting [1], the activity was found to be 108%.
Regarding `CC(C)C(=O)Nc1ccc([N+](=O)[O-])c(C(F)(F)F)c1` [FLUTAMIDE], under setting [1], the activity was determined as 126%.
`CC(=O)Nc1ccc(O[C@@H]2O[C@H](C(=O)O)[C@@H](O)[C@H](O)[C@H]2O)cc1` [ACETAMINOPHEN GLUCURONIDE]: the activity under setting [1] was determined as 150%.
Consider `CNCCCN1c2ccccc2CCc2ccccc21` [DESIPRAMINE], for which the activity under setting [1] worked out at 57%.
`CC[C@]1(O)C[C@@H]2CN(CCc3c([nH]c4ccccc34)[C@@](C(=O)OC)(c3cc4c(cc3OC)N(C)[C@H]3[C@@](O)(C(=O)OC)[C@H](OC(C)=O)[C@]5(CC)C=CCN6CC[C@]43[C@@H]65)C2)C1` [VINBLASTINE]: the activity under setting [1] turned out to be 78%.
With `COc1ccc2c(c1)[C@]13CCCC[C@@H]1[C@H](C2)N(C)CC3` [DEXTROMETHORPHAN], the activity under setting [1] amounted to 57%.
With `CCCNCC(O)COc1ccccc1C(=O)CCc1ccccc1` (stereo not given) [PROPAFENONE], the activity (sf9) was 58%.
Consider `C[n+]1ccc(-c2ccccc2)cc1`, for which the activity under setting [1] is 72%.
Consider `COC(=O)C1=C(C)NC(C)=C(C(=O)OCCN(C)Cc2ccccc2)C1c1cccc([N+](=O)[O-])c1` (stereo not given) [NICARDIPINE], for which the activity (sf9) came to 59%.
Same read-out and setting: the same measure for `N[C@@H](CCC(=O)N[C@@H](CS)C(=O)NCC(=O)O)C(=O)O` [GLUTATHIONE]: 116%.
`CCCCc1oc2ccccc2c1C(=O)c1cc(I)c(OCCN(CC)CC)c(I)c1` [AMIODARONE]: the activity (sf9) is 66%.
Turning to `O=C(CCCN1CCC(O)(c2ccc(Cl)cc2)CC1)c1ccc(F)cc1` [HALOPERIDOL], under setting [1], the activity worked out at 106%.
With `CC1COc2c(N3CCN(C)CC3)c(F)cc3c(=O)c(C(=O)O)cn1c23` (stereo not given) [OFLOXACIN], the activity under setting [1] was determined as 83%.
Take `Cc1nc2sccn2c(=O)c1CCN1CCC(=C(c2ccc(F)cc2)c2ccc(F)cc2)CC1` [RITANSERIN]: under setting [1], the activity stood at 86%.
With `CC1=C(C(=O)O)N2C(=O)[C@@H](NC(=O)[C@H](N)c3ccc(O)cc3)[C@H]2SC1` [CEFADROXIL], the activity under setting [1] was determined as 68%.
Consider `NC12CC3CC(CC(C3)C1)C2` [AMANTADINE], for which the activity under setting [1] worked out at 101%.
Regarding `CC(C)N(CC[C@](C(N)=O)(c1ccccc1)c1ccccn1)C(C)C` [(S)-DISOPYRAMIDE], the activity under setting [1] came to 104%.
Still for that read-out and setting: the same measure for `COc1ccc(/C=C/C(=O)Nc2ccccc2C(=O)O)cc1OC`: 98%; for `CC[C@H](C)C(=O)O[C@H]1C[C@H](O)C=C2C=C[C@H](C)[C@H](CC[C@@H](O)C[C@@H](O)CC(=O)O)[C@H]21` [PRAVASTATIN]: 135%.
`CC(=O)CC(c1ccccc1)c1c(O)c2ccccc2oc1=O` (stereo not given) [WARFARIN]: the activity under setting [1] came to 136%.
Turning to `CCCN(CCC)S(=O)(=O)c1ccc(C(=O)O)cc1` [PROBENECID], under setting [1], the activity was found to be 110%.
